Laboratory results as given in patent US9820967B2 (priority 2014, dated 2017).
Values joined by “and” are separate entries in the source; they are usually repeats but may differ in a detail not shown here. Equal values may be shown once. “Also recorded” adds a separate entry of the source. Read-outs that look alike come from different tables or passages of the source.

Assays:
[1] = tested on: efflux pump (EPI functionality); assay: EPI functionality assays of authentic standard; type: cell-based, Escherichia coli
Text: Moreover, this “halogenome” appeared to be dominated by brominated metabolites, with only some metabolites (<10) that were additionally chlorinated. […] Relative concentrations of halogenated compounds from clade IV appeared different even within members of the same species, indicative of intraspecies chemical diversity and further subclustering among isolates of the same species (A757, A754, A746, and B149), a phenomenon previously described for P. luteoviolacea strains. […] The presence of 2,3,4-tribromopyrrole was also determined (retention time 20.1 min, major ion m/z 301.7639), which was present in A757, A754, and A746, but not in B149. […]
(§1) To truly be considered an efflux pump inhibitor (EPI), the compound must increase the level of accumulation and decrease the level of extrusion of efflux pump substrates. The fluorescent DNA-binding dye Hoechst 33342 (H33342) a known substrate for RND pumps, is easily detected in the cell, can freely permeate the outer membrane, and can act as a reporter, all allowing for quantification of transport across living cells. Efflux-competent cells extrude H33342 and accumulate dye at a relatively slow rate, resulting in low levels of background fluorescence. Conversely, efflux-defective cells (e.g., presence of EPI) accumulate intracellular levels of H33342 at a higher rate, resulting in fluorescence retention. […]

[2] = tested on: E. coli strains overexpressing efflux pumps (AG102, MG1655 ΔBC/pABM, MG1655 ΔBC/pXYM; AcrAB-TolC, MexAB-OprM, MexXY-OprM); type: cell-based, Escherichia coli
Text: The checkerboard assay was used to determine whether 3,4-dibromopyrrole-2,5-dione potentiates the activity of two fluoroquinolones (ciprofloxacin (CIP) and levofloxacin (LEV)), an aminoglycoside (kanamycin (KAN)), a macrolide (erythromycin (ERY)), two β-lactams (oxacillin (OXA) and piperacillin (PIP)), tetracycline (TET), and chloramphenicol (CHL), known substrates for resistance nodulation cell division pump (RND) transporters, against test strains of multidrug resistant (MDR) E. coli. Interactions between 3,4-dibromopyrrole-2,5-dione and various antibiotics were classified based upon the fractional inhibitory concentration index (FICI), where a FIC of <0.5 is synergistic and indicative of the presence of an efflux pump inhibitor (EPI); 0.5-1 is indifferent; and >1 is antagonistic. […]
Bacterial susceptibility of extracts were tested in duplicate at 1 mg/mL and determined by rapid p-iodonitrotetrazolium chloride colorimetric assay in 96-well microtiter plates in a final volume of 200 μL as previously described (Kuete (2010), Antimicrob. Agents Chemother., 54, 1749-1752). […]
To assess the interaction between different classes of antibiotics and 3,4-dibromopyrrole-2,5-dione, standard checkerboard assays were performed in which the minimum inhibitory concentrations (MICs) of antibiotics were determined in the presence of different concentrations of 3,4-dibromopyrrole-2,5-dione. […]

[3] = target: wild-type E. coli AG100 expressing the AcrAB-TolC pump (Escherichia coli, UniProt P31224); type: cell-based
Chain of wild-type E. coli AG100 expressing the AcrAB-TolC pump (P31224 whole entry): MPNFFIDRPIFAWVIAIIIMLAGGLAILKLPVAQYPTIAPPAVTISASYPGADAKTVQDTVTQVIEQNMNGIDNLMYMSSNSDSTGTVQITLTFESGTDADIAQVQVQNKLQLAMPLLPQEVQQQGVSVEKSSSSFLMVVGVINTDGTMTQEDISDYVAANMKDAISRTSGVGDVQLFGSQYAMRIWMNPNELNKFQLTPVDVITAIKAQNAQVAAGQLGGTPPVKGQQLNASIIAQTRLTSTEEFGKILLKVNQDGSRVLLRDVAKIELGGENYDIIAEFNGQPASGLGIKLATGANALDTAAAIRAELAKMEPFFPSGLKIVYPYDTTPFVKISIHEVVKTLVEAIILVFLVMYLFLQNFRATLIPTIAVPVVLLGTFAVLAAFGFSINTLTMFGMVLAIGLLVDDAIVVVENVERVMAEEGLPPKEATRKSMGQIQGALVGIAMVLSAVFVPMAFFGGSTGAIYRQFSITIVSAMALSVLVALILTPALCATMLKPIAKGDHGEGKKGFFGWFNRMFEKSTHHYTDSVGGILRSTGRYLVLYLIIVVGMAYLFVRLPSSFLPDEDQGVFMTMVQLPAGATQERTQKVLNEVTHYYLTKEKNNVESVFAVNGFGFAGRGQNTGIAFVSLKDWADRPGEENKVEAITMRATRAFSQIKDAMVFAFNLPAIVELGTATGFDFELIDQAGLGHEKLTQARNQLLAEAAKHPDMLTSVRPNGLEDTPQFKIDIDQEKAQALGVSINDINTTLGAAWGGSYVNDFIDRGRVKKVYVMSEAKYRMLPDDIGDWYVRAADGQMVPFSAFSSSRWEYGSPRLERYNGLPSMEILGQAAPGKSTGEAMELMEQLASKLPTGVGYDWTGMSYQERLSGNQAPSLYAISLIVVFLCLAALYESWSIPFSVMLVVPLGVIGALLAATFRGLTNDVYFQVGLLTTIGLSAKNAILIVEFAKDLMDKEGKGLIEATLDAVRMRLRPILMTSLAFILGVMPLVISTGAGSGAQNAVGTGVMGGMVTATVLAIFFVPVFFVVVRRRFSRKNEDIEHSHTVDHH
Chain of wild-type E. coli AG100 expressing the AcrAB-TolC pump (P0AE06 25-397, further chain): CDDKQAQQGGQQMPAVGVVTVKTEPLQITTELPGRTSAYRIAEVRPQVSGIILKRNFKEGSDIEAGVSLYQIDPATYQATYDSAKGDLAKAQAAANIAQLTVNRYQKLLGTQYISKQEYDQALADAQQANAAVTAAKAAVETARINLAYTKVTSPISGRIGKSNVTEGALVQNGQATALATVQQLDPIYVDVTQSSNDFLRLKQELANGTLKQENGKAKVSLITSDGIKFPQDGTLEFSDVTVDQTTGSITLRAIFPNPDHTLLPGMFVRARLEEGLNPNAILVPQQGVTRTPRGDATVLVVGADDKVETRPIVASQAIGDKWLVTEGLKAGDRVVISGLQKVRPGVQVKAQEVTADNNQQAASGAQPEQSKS
Chain of wild-type E. coli AG100 expressing the AcrAB-TolC pump (P02930 23-493, further chain): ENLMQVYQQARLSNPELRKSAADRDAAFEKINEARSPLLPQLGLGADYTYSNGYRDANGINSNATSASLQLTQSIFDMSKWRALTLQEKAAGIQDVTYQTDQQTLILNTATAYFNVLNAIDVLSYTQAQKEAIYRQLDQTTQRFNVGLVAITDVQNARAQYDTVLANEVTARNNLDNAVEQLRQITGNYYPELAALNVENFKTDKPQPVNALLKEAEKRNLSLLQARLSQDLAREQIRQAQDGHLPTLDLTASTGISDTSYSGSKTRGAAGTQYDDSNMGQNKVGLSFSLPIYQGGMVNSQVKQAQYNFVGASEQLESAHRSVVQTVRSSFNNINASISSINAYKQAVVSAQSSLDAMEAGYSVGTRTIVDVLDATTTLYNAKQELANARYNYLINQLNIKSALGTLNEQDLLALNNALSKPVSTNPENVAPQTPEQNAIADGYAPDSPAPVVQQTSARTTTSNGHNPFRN
Text: (§2) Upon entering the bacterial cell, H33342 becomes fluorescent once bound to the DNA minor groove.
as §1
(§3) For accumulation assays, in efflux-competent cells such as AG100, H33342 would be extruded resulting in low levels of background fluorescence, while the presence of a putative EPI would cause intracellular H33342 accumulation. […] Fluorescence values for wells containing media and compounds only were subtracted from those containing bacteria to control for any background fluorescence due to the presence of test compounds. […]

[4] = tested on: E. coli mutant AG100A (ΔacrAB), lacking the pump; type: cell-based, Escherichia coli; conditions: transporter deficient
Text: as §2, §1, §3

[5] = target: H33342 efflux in E. coli AG100 (AcrAB-TolC) (Escherichia coli, UniProt P31224); assay: Hoechst 33342 efflux assay, AG100; type: cell-based
Chain of H33342 efflux in E. coli AG100 (AcrAB-TolC) (P31224 whole entry): as the sequence (P31224 whole entry) above
Chain of H33342 efflux in E. coli AG100 (AcrAB-TolC) (P0AE06 25-397, further chain): as the sequence (P0AE06 25-397, further chain) above
Chain of H33342 efflux in E. coli AG100 (AcrAB-TolC) (P02930 23-493, further chain): as the sequence (P02930 23-493, further chain) above
Text: To truly be considered an efflux pump inhibitor (EPI), the compound must increase the level of accumulation and decrease the level of extrusion of efflux pump substrates. The fluorescent DNA-binding dye Hoechst 33342 (H33342) a known substrate for RND pumps, is easily detected in the cell, can freely permeate the outer membrane, and can act as a reporter, all allowing for quantification of transport across living cells. Efflux-competent cells extrude H33342 and accumulate dye at a relatively slow rate, resulting in low levels of background fluorescence. Conversely, efflux-defective cells (e.g., presence of EPI) accumulate intracellular levels of H33342 at a higher rate, resulting in fluorescence retention. Wild-type E. coli K-12 strain, AG100, and AG100A, the ΔacrAB mutant, a generous gift from Dr. M. Viveiros (Universidad Nova de Lisboa, Portugal), were used in accumulation and efflux assays. […] All experiments were performed in duplicate. Heat-inactivated bacteria were used as a positive control to assess maximal dye accumulation.

[6] = tested on: fungi; conditions: Tsukamoto et al. (2001); cited from earlier work
[7] = tested on: murine lymphocytic leukemia cells; conditions: cited from earlier work

Compound | EPI activity of authentic standard [1] | interaction by fractional inhibitory concentration index (FICI) ([2]; all antibiotics tested with the exception of piperacillin) | antibacterial activity of compound alone, concentration ([2]; all three E. coli strains overexpressing efflux pumps) [µg/mL] | concentration equal to or more effective than PAβN (15.6 μg/mL) in causing H33342 accumulation [3] [µg/mL] | intracellular H33342 fluorescence (accumulation) [3] | effect on H33342 fluorescence (accumulation) [4] | effect on H33342 fluorescence (accumulation) ([4]; listed as 3,4-Dibromopyrrole-2,5-dione) | IC50 [5] | most dilute concentration with significant (p<0.05) H33342 efflux inhibition vs solvent controls [5] [µg/mL] | inhibition of H33342 efflux vs control wells ([5]; 0.06-64 μg/mL, glucose, 37° C.) | antifungal activity [6] | cytotoxicity [7]
Brc1[nH]c(Br)c(Br)c1Br [2,3,4,5-tetrabromopyrrole] | not to be responsible for the EPI activity |  |  |  |  |  |  |  |  |  |  | 
O=C1NC(=O)C(Br)=C1Br [3,4-dibromopyrrole-2,5-dione] |  | synergistic (a FIC of <0.5 is synergistic and indicative of the presence of an efflux pump inhibitor (EPI)) | > 100 | ≥ 1 | dose-dependent increase; also recorded: increased | no effect | not | 3.1 µM and 3 µM | 0.06 | near-complete inhibition | modest antifungal activity | cytotoxicity
